# Laboratory results published in patent US9586986B2, “Substituted 7-deazapurine ribonucleosides for therapeutic uses” (Institute of Organic Chemistry and Biochemistry ASCR, v.v.i., priority 2014, dated 2017).
# Read-outs that look alike come from different tables or passages of the source.
# Columns and labels:
# Format in all cases: cell-based
# [1] = test system: CCRF-CEM; assay: Cytostatic/cytotoxic MTT assay, CCRF-CEM; details: Homo sapiens, read-out: MTT, IC50 CCRF-CEM
# Text: (§1) Unless otherwise stated, all cells were purchased from the […] (ATCC). The CCRF-CEM line is derived from T lymphoblastic leukemia, evincing high chemosenzitivity, K562 represent cells from a […] patient sample with bcr-abl translocation, HCT116 is colorectal tumor cell line and its p53 gene knock-down counterpart (HCT116p53−/−, Horizon Discovery, UK) is a model of human cancers with p53 inactivation frequently associated with poor prognosis, A549 cell line is lung adenocarcinoma. The daunorubicin resistant subline of CCRF-CEM cells (CEM-DNR bulk) and paclitaxel resistant subline K562-TAX were selected in our laboratory by cultivation of maternal cell lines in increasing concentrations of daunorubicine or paclitaxel, respectively. The CEM-DNR cells overexpress mrp-1 and mdr-1 genes, while K562-TAX cells overexpress mdr-1 only. Both proteins belong to the family of ABC transporters and are involved in the primary and/or acquired multidrug resistance phenomenon (ref.: Gottesman, M. M.; Fojo, T.; Bates, S. E. Multidrug resistance in cancer: role of ATP-dependent transporters. Nat. Rev. Cancer. 2002, 2, 48-58. (b) Noskova, V.; Dzubak, P.; Kuzmina, G.; Ludkova, A.; Stehlik, D.; Trojanec, R.; Janostakova, A.; Korinkova, G.; Mihal, V.; Hajduch, M. In vitro chemoresistance profile and expression/function of MDR associated proteins in resistant cell lines derived from CCRF-CEM, K562, A549 and MDA MB 231 parental cells. Neoplasma 2002, 49, 418-425). Non-malignant MRC-5 and BJ cells, derived from normal human fibroblasts, were used as controls. The cells were maintained in Nunc/Corning 80 cm^2 plastic tissue culture flasks and cultured in cell culture medium (DMEM/RPMI 1640 with 5 g/L glucose, 2 mM glutamine, 100 U/mL penicillin, 100 µg/mL streptomycin, 10% fetal calf serum, and NaHCO3). Cell suspensions were prepared and diluted according to the particular cell type and the expected target cell density (25,000-30,000 cells/well based on cell growth characteristics). Cells were added by pipette (80 L) into 96-well microtiter plates. Inoculates were allowed a pre-incubation period of 24 h at 37° C. and 5% CO2 for stabilization. Four-fold dilutions, in 20-L aliquots, of the intended test concentration were added to the microtiter plate walls at time zero. All test compound concentrations were examined in duplicate. Incubation of the cells with the test compounds lasted for 72 h at 37° C., in a 5% CO2 atmosphere at 100% humidity. At the end of the incubation period, the cells were assayed using MTT. Aliquots (10 L) of the MTT stock solution (5 mg/ml) were pipetted into each well and incubated for another 1-4 h. After this incubation period the formazan produced was dissolved by addition of 100 µL/well of 10% aq SDS (pH 5.5), followed by a further incubation at 37° C. overnight. The optical density was measured at 540 nm. The IC50 value, the drug concentration inhibiting the cell growth by 50%, was calculated from appropriate dose-response curves.
# (§2) In vitro cytotoxic/cytostatic activity final nucleosides 1-5 was initially evaluated against […] cell lines derived from human solid tumors including lung (A549 cells) and colon (HCT116 and HCT116p53−/−) carcinomas, as well as leukemia cell lines (CCRF-CEM, CEM-DNR, K562 and K562-TAX) and, for comparison, non-malignant BJ and MRC-5 fibroblasts. Concentrations inhibiting the cell growth by 50% (IC50) were determined using a quantitative metabolic staining with 3-(4,5-dimethylthiazol-2-yl)-2,5-diphenyltetrazolium bromide (MTT) (ref.: Denizot, F.; Lang, R. Rapid colorimetric assay for cell growth and survival: Modifications to the tetrazolium dye procedure giving improved sensitivity and reliability. J. Immunol. Meth. 1986, 89, 271-277) following a 3-day treatment.
# [2] = test system: CEM-DNR-bulk; assay: Cytostatic/cytotoxic MTT assay, CEM-DNR-bulk; details: Homo sapiens, 72 h, read-out: MTT, IC50 CEM-DNR-bulk
# Text: as §1, §2
# (§3) Multidrug resistance is a major therapeutic problem in cancer chemotherapy. […]
# [3] = test system: K562; assay: Cytostatic/cytotoxic MTT assay, K562; details: Homo sapiens, read-out: MTT, IC50 K562
# Text: as §1, §2
# [4] = test system: K562-TAX; assay: Cytostatic/cytotoxic MTT assay, K562-TAX; details: Homo sapiens, 72 h, read-out: MTT, IC50 K562-TAX
# Text: as §1, §2, §3
# [5] = test system: A549; assay: Cytostatic/cytotoxic MTT assay, A549; details: Homo sapiens, read-out: MTT, IC50 A549
# Text: as §1, §2
# [6] = test system: BJ; assay: Cytostatic/cytotoxic MTT assay, BJ fibroblasts; details: Homo sapiens, 72 h, read-out: MTT, IC50 BJ
# Text: as §1, §2
# [7] = test system: MRC-5; assay: Cytostatic/cytotoxic MTT assay, MRC-5 fibroblasts; details: Homo sapiens, read-out: MTT, IC50 MRC-5
# Text: as §1, §2
# [8] = test system: HCV subtype 2A replicon in Huh-7 cells; assay: HCV sub-genomic reporter replicon assay, subtype 2A; details: Hepatitis C virus
# Description: (§4) Compounds were also tested in Huh-7 cells harboring sub-genomic reporter replicons derived from HCV subtypes 1B and 2A (ref.: Stuyver, L. J.; Whitaker, T.; McBrayer, T. R.; Hernandez-Santiago, B. I.; Lostia, S.; Tharnish, P. M.; Ramesh, M.; Chu, C. K.; Jordan, R.; Shi, J. X.; Rachakonda, S.; Watanabe, K. A.; Otto, M. J.; Schinazi, R. F. Antimicrob. Agents Chemother. 2003, 47, 244-254).
# [9] = test system: Huh-7 cells harboring replicon 2A; assay: Cytotoxicity in replicon 2A cells; details: HCV subtype 2A replicon
# Description: as §4
# [10] = MRC5, non-malignant fibroblasts, 72 h
# [11] = Huh-7 cells, HCV subtype 2A replicon, read-out: Replicon 2A EC50
SMILES,IC50 ([1]; 72 h) [µM],IC50 [2] [µM],"IC50 ([3]; K562, 72 h) [µM]",IC50 [4] [µM],"IC50 ([5]; A549, 72 h) [µM]",IC50 [6] [µM],"IC50 ([7]; MRC5, 72 h) [µM]","EC50 ([8]; Huh-7, read-out: Replicon 2A EC50) [µM]",CC50 [9] [µM],IC50 ([1]; 72 h incubation) [µM],IC50 ([2]; daunorubicin resistant subline) [µM],"IC50 ([3]; K562, 72 h incubation) [µM]",IC50 ([4]; paclitaxel resistant subline) [µM],"IC50 ([5]; A549, 72 h incubation) [µM]",IC50 ([6]; non-malignant fibroblasts) [µM],"IC50 [7, 10] [µM]","EC50 [8, 11] [µM]"
"Cc1ncnc2c1ccn2[C@@H]1O[C@H](CO)[C@@H](O)[C@H]1O [RC5, 4-Methyl-7-(β-D-ribofuranosyl)-7H-pyrrolo[2,3-d]pyrimidine, reference compound]",0.01,0.05,0.01,0.05,0.03,0.07,0.09,0.02,0.12,–,–,–,–,–,–,–,–
"COc1ncnc2c1c(I)cn2[C@@H]1O[C@H](CO)[C@@H](O)[C@H]1O [Compound 1h, 5-iodo-4-methoxy-7-(β-D-ribofuranosyl)-7H-pyrrolo[2,3-d]pyrimidine, reference compound]",–,–,–,–,–,–,–,–,> 44,1.15,> 20,> 20,14.8,> 20,91,63,> 44
"CSc1ncnc2c1c(-c1ccsc1)cn2[C@@H]1O[C@H](CO)[C@@H](O)[C@H]1O [Compound 2d, 4-Methylsulfanyl-7-(β-D-ribofuranosyl)-5-(thiophen-3-yl)-7H-pyrrolo[2,3-d]pyrimidine]",–,–,–,–,–,–,–,–,> 44,> 20,> 20,0.45,> 20,> 20,95.8,> 100,> 44
"CNc1ncnc2c1c(-c1cc3ccccc3o1)cn2[C@@H]1O[C@H](CO)[C@@H](O)[C@H]1O [Compound 3f, 5-(Benzofuran-2-yl)-4-methylamino-7-(β-D-ribofuranosyl)-7H-pyrrolo[2,3-d]pyrimidine]",–,–,–,–,–,–,–,–,> 44,> 20,> 20,> 20,> 20,> 20,75.6,75.3,13.6
"CSc1ncnc2c1c(-c1cccs1)cn2[C@@H]1O[C@H](CO)[C@@H](O)[C@H]1O [Compound 2c, 4-Methylsulfanyl-7-(β-D-ribofuranosyl)-5-(thiophen-2-yl)-7H-pyrrolo[2,3-d]pyrimidine]",–,–,–,–,–,–,–,–,> 44,> 20,> 20,11.6,> 20,> 20,96.9,> 100,> 44
"CN(C)c1ncnc2c1c(-c1cc3ccccc3o1)cn2[C@@H]1O[C@H](CO)[C@@H](O)[C@H]1O [Compound 4f, 5-(Benzofuran-2-yl)-4-dimethylamino-7-(β-D-ribofuranosyl)-7H-pyrrolo[2,3-d]pyrimidine]",–,–,–,–,–,–,–,–,> 44,> 20,> 20,> 20,> 20,> 20,> 100,> 100,> 44
"COc1ncnc2c1c(-c1cc3ccccc3o1)cn2[C@@H]1O[C@H](CO)[C@@H](O)[C@H]1O [Compound 1f, 5-(Benzofuran-2-yl)-4-methoxy-7-(β-D-ribofuranosyl)-7H-pyrrolo[2,3-d]pyrimidine]",–,–,–,–,–,–,–,–,> 44,5.37,10.8,20.9,13.1,17.7,22.4,65.6,10.2
"Cc1ncnc2c1c(-c1cc3ccccc3o1)cn2[C@@H]1O[C@H](CO)[C@@H](O)[C@H]1O [Compound 5f, 5-(Benzofuran-2-yl)-4-methyl-7-(β-D-ribofuranosyl)-7H-pyrrolo[2,3-d]pyrimidine]",–,–,–,–,–,–,–,–,> 44,17.3,> 20,19.5,> 20,> 20,93.9,84.4,40.2
"CNc1ncnc2c1c(-c1ccsc1)cn2[C@@H]1O[C@H](CO)[C@@H](O)[C@H]1O [Compound 3d, 4-Methylamino-7-(β-D-ribofuranosyl)-5-(thiophen-3-yl)-7H-pyrrolo[2,3-d]pyrimidine]",–,–,–,–,–,–,–,–,> 44,> 20,> 20,> 20,> 20,> 20,> 100,> 100,> 44
"CN(C)c1ncnc2c1ccn2[C@@H]1O[C@H](CO)[C@@H](O)[C@H]1O [RC4, reference compound]",–,–,–,–,–,–,–,–,> 44,0.63,2.6,5.28,0.89,> 20,5.3,58.2,0.97
"C#Cc1cn([C@@H]2O[C@H](CO)[C@@H](O)[C@H]2O)c2ncnc(OC)c12 [Compound 1g, 5-Ethynyl-4-methoxy-7-(β-D-ribofuranosyl)-7H-pyrrolo[2,3-d]pyrimidine]",–,–,–,–,–,–,–,–,> 44,> 20,3.49,0.3,0.38,8.16,98.4,> 100,> 44
"C#Cc1cn([C@@H]2O[C@H](CO)[C@@H](O)[C@H]2O)c2ncnc(SC)c12 [Compound 2g, 5-Ethynyl-4-methylsulfanyl-7-(β-D-ribofuranosyl)-7H-pyrrolo[2,3-d]pyrimidine]",–,–,–,–,–,–,–,–,> 44,> 20,0.11,0.03,0.07,0.14,68.6,> 100,> 44
"CN(C)c1ncnc2c1c(-c1ccccc1)cn2[C@@H]1O[C@H](CO)[C@@H](O)[C@H]1O [Compound 4e, 4-Dimethylamino-5-phenyl-7-(β-D-ribofuranosyl)-7H-pyrrolo[2,3-d]pyrimidine]",–,–,–,–,–,–,–,–,> 44,> 20,> 20,> 20,> 20,> 100,> 100,> 100,> 44
